Measurements published in US20210060118A1, “THERAPEUTIC HOMODIMER AND USES THEREOF” (priority 2014, published 2021).
Where “and” joins values, the source holds several entries; their conditions need not be identical. Equal values may be shown once. Entries after “also recorded” stand apart in the source; their conditions may differ. Read-outs that look alike come from different tables or passages of the source. Bridge positions count the residues as written; N and C are the ends. Peptide text beside a SMILES is read from it. I, II: the chains in the order shown.

Experiments:
[1] = system: human buccal tissue model; assay: Human buccal tissue permeability screening (EpiOral tissue model, HPLC of supernatant); conditions: for Transmissibility (%): 30 minutes at 37° C.; for Peak Area by HPLC of Peptides in Solution, Post-overlay: supernatant above cells after 30 minutes at 37° C.
Description: (§1) A human buccal tissue model was used for in vitro testing of the permeability of a number of disulphide-linked homodimers.
(§2) Human oral mucosa tissue models were prepared in accordance with the standard protocols of a commercial reagent supplier (EpiOral™, MatTek Corporation; for details see http://www.mattek.com/epioral/applications/drug-delivery; see also for example Thakur et al., Drug Development and Industrial Pharmacy, 2007, 33(5), pages 513-52). In brief, the tissue models were prepared in tissue culture wells of 24-well plates containing an inner well (insert) with a microporous membrane base coated with an extracellular matrix preparation, on which the human mucosal cells were seeded. The inner well was submerged in the reagent supplier's recommended serum free culture medium which permeates through the microporous membrane to feed the cells in the insert. The cells were submerged in the culture medium for a few days, after insertion of the inner wells into the tissue culture wells and permeation of the culture medium into the inner wells, in accordance with the reagent supplier's recommendation. The inserts containing the developing tissues were then elevated to the air/liquid interface which induces stratification and differentiation. The resulting human buccal cell cultures were stratified, three dimensional tissues comprising 25-30 cell layers, non-cornified with nucleated cells extending up to the apical surface and with histology similar to that of native buccal tissue.
(§3) The buccal tissue culture inserts were transferred from the original tissue culture 24-well plates (maintained at 4° C. in sealed bags containing 5% CO2) under sterile conditions into wells of a fresh 24-well plate containing 1.0 ml of the reagent supplier's recommended serum free medium pre-warmed to 37° C. The plate was then incubated in a humidified incubator at 37° C. in a 5% CO2 atmosphere for one hour as a pre-equilibration procedure prior to dosing.
(§4) After removal of the pre-equilibrated plate from the incubator, any culture medium over the surface of the tissue was carefully removed and replaced with 100 μL of appropriately diluted homodimer solution in reagent supplier's recommended serum free culture medium (stock homodimer-containing medium). The plate was then incubated for a further 30 minutes at 37° C. in a 5% CO2 atmosphere. The plate was removed from the incubator and supernatant samples were taken from above the cells, inside the insert, and analysed by HPLC. The main peak areas for each tested peptide in the supernatants were compared to the corresponding peak areas for the tested peptides in the relevant pre-incubation samples of the stock homodimer-containing medium.

[2] = system: human buccal tissue model
Description: as §1, §2, §3, §4

human diabetic patients = assay: Therapeutic efficacy testing in human diabetic patients (HbA1c); assay type: in vivo; conditions: for HbA1c % Change: day 35 vs baseline; for HbA1c % Baseline (Mean ± sd.): before first dose
Description: Homodimer C was tested in human clinical trials to determine therapeutic efficacy of transmucosal delivery. Both intraoral (sublingual) delivery and peroral delivery were tested. Two further groups of patients were administered an injectable preparation of Homodimer C to allow a comparison of the effects of transmucosal delivery to the effects of injection delivery.
Diabetic patients treated with oral anti-diabetic drugs (e.g. sulfonylurea type drugs) or insulin were recruited and randomised to four patient groups: two injectable peptide groups (Groups 1 and 2) and to two oral peptide dosage groups, for delivery of Homodimer C either by sublingual administration (Group 3) or via enteric coated capsules (Group 4).
Each group was administered five doses of Homodimer C. Homodimer C was administered once weekly (at days 0, 7, 14, 21 and 28 of the study) at a dose of 2 mg (which equates to approximately 0.03 mg/kg for a notional 70 kg subject) for all four groups. The homodimer injections were intramuscular, generally into the upper arm of the subjects. The patients' current treatment was not withdrawn during the study. HbA1c levels were determined in advance of the first dose and at day 35 of the study.

[3] = Table 1, stock homodimer-containing medium before incubation

CC(C)C[C@H](NC(=O)CNC(=O)[C@H](CCCNC(=N)N)NC(=O)[C@H](CC(C)C)NC(=O)[C@@H](N)CSSC[C@H](N)C(=O)N[C@@H](CC(C)C)C(=O)N[C@@H](CCCNC(=N)N)C(=O)NCC(=O)N[C@@H](CC(C)C)C(=O)N[C@@H](CC(C)C)C(=O)N1CCC[C@H]1C(=O)N[C@@H](CC(=O)O)C(=O)N[C@@H](Cc1ccc(O)cc1)C(=O)O)C(=O)N[C@@H](CC(C)C)C(=O)N1CCC[C@H]1C(=O)N[C@@H](CC(=O)O)C(=O)N[C@@H](Cc1ccc(O)cc1)C(=O)O [Homodimer B, reference compound] (I: H-CLRGLLPDY-OH / II: H-CLRGLLPDY-OH; disulfide I:1-II:1; N-terminus and C-terminus assumed)
transmissibility (absorption) across the human buccal tissue surface, in words [1]: did not demonstrate any transmissibility
Transmissibility (%) ([1]; Table 1): 0%
Peak Area by HPLC of Peptides in Solution, Pre-overlay [1, 3]: 2023
Peak Area by HPLC of Peptides in Solution, Post-overlay ([1]; Table 1): 2396

CC[C@H](C)[C@H](NC(=O)[C@H](CC(N)=O)NC(=O)[C@@H](N)CSSC[C@H](N)C(=O)N[C@@H](CC(N)=O)C(=O)N[C@H](C(=O)N[C@@H](Cc1ccc(O)cc1)C(=O)N1CCC[C@H]1C(=O)N[C@@H](CO)C(=O)N[C@@H](CC(=O)O)C(=O)N[C@@H](CO)C(=O)N[C@@H](Cc1ccc(O)cc1)C(=O)N[C@H](C(=O)N[C@@H](CC(N)=O)C(=O)N[C@@H](Cc1ccc(O)cc1)C(=O)N[C@@H](CC(N)=O)C(=O)N[C@@H](CCC(N)=O)C(=O)N[C@@H](CCCCN)C(=O)N[C@@H](Cc1ccccc1)C(=O)N[C@@H](CCCCN)C(=O)N[C@@H](CC(=O)O)C(=O)O)[C@@H](C)O)[C@@H](C)CC)C(=O)N[C@@H](Cc1ccc(O)cc1)C(=O)N1CCC[C@H]1C(=O)N[C@@H](CO)C(=O)N[C@@H](CC(=O)O)C(=O)N[C@@H](CO)C(=O)N[C@@H](Cc1ccc(O)cc1)C(=O)N[C@H](C(=O)N[C@@H](CC(N)=O)C(=O)N[C@@H](Cc1ccc(O)cc1)C(=O)N[C@@H](CC(N)=O)C(=O)N[C@@H](CCC(N)=O)C(=O)N[C@@H](CCCCN)C(=O)N[C@@H](Cc1ccccc1)C(=O)N[C@@H](CCCCN)C(=O)N[C@@H](CC(=O)O)C(=O)O)[C@@H](C)O [Homodimer A] (I: H-CNIYPSDSYTNYNQKFKD-OH / II: H-CNIYPSDSYTNYNQKFKD-OH; disulfide I:1-II:1; N-terminus and C-terminus assumed)
Peak Area by HPLC of Peptides in Solution, Post-overlay [2]: 4439
Peak Area by HPLC of Peptides in Solution, Pre-overlay [2]: 5398
Transmissibility (%) [2]: 17.7%
transmissibility (absorption) across the human buccal tissue surface, in words [2]: only poor transmissibility

CC(C)C[C@H](NC(=O)[C@@H]1CCCN1C(=O)[C@H](Cc1ccc(O)cc1)NC(=O)[C@H](CO)NC(=O)[C@H](CC(N)=O)NC(=O)[C@H](Cc1ccc(O)cc1)NC(=O)[C@H](CCC(N)=O)NC(=O)[C@H](CCC(N)=O)NC(=O)[C@@H](N)CSSC[C@H](N)C(=O)N[C@@H](CCC(N)=O)C(=O)N[C@@H](CCC(N)=O)C(=O)N[C@@H](Cc1ccc(O)cc1)C(=O)N[C@@H](CC(N)=O)C(=O)N[C@@H](CO)C(=O)N[C@@H](Cc1ccc(O)cc1)C(=O)N1CCC[C@H]1C(=O)N[C@@H](CC(C)C)C(=O)N[C@H](C(=O)O)[C@@H](C)O)C(=O)N[C@H](C(=O)O)[C@@H](C)O [Homodimer C] (I: H-CQQYNSYPLT-OH / II: H-CQQYNSYPLT-OH; disulfide I:1-II:1; N-terminus assumed)
efficacy of intraoral (sublingual) or peroral routes compared with parenteral (injection) (human diabetic patients; 2 mg once weekly x5): significantly more effective
HbA1c % Change (human diabetic patients; Group 1, intramuscular injection 2 mg once weekly x5, insulin only, P = 0.045): −0.60%
HbA1c % Day 35 (Mean ± sd.) (human diabetic patients; Group 1, intramuscular injection 2 mg once weekly x5, previous treatment insulin only, n = 17): 10.74 ± 2.0%
HbA1c % Baseline (Mean ± sd.) (human diabetic patients; Group 1, intramuscular injection, previous treatment insulin only, n = 17): 11.34 ± 2.6%
HbA1c % Day 35 (Mean ± sd.) (human diabetic patients; Group 2, intramuscular injection 2 mg once weekly x5, oral anti-diabetics and/or insulin, n = 18): 9.57 ± 1.79%
HbA1c % Change (human diabetic patients; Group 2, intramuscular injection 2 mg once weekly x5, P = 0.033): −0.75%
HbA1c % Baseline (Mean ± sd.) (human diabetic patients; Group 2, intramuscular injection, previous oral anti-diabetics and/or insulin, n = 18): 10.32 ± 2.24%
HbA1c % Day 35 (Mean ± sd.) (human diabetic patients; Group 3, sublingual 2 mg once weekly x5, n = 7): 7.85 ± 2.03%
HbA1c % Change (human diabetic patients; Group 3, sublingual 2 mg once weekly x5, P = 0.005): −1.33%
HbA1c % Baseline (Mean ± sd.) (human diabetic patients; Group 3, sublingual, previous oral anti-diabetics and/or insulin, n = 7): 9.18 ± 2.64%
HbA1c % Day 35 (Mean ± sd.) (human diabetic patients; Group 4, enteric coated capsule (peroral) 2 mg once weekly x5, n = 7): 8.12 ± 1.04%
HbA1c % Change (human diabetic patients; Group 4, enteric coated capsule (peroral) 2 mg once weekly x5, P = 0.016): −1.18%
HbA1c % Baseline (Mean ± sd.) (human diabetic patients; Group 4, enteric coated capsule (peroral), previous oral anti-diabetics and/or insulin, n = 7): 9.30 ± 1.65%
side-effects in human patients (human diabetic patients; doses of approximately 2 mg (approximately 0.03 mg/kg)): without significant undesirable side-effects
mean HbA1c levels at day 35 relative to mean baseline, in words (human diabetic patients; each of Groups 1-4): significantly reduced
transmissibility (absorption) across the human buccal tissue surface, in words [1]: transmitted efficiently; also recorded: efficient uptake
Transmissibility (%) ([1]; Table 1): 94.1%
Peak Area by HPLC of Peptides in Solution, Pre-overlay [1, 3]: 4142
Peak Area by HPLC of Peptides in Solution, Post-overlay ([1]; Table 1): 243
Transmissibility (%) ([1]; Table 2, triplicate cultures): 93.3% and 84.5% and 100%
Peak Area by HPLC of Peptides in Solution, Pre-overlay ([1]; Table 2, triplicate cultures, stock medium before incubation): 4142
